Measurements taken from ChEMBL document CHEMBL2073936, “A novel human hepatic organic anion transporting polypeptide (OATP2). Identification of a liver-specific human organic anion transporting polypeptide and identification of rat and human hydroxymethylglutaryl-CoA reductase inhibitor transporters” (J Biol Chem, 1999).

Tests used:
[1] = target: T1, Solute carrier organic anion transporter family member 1A1 (Rattus norvegicus, UniProt P46720); test: TP_TRANSPORTER: inhibition of Pravastatin uptake (Pravastatin: 0.5 uM, BMS243887: 50 uM) in Oatp1-expressing 293c18 cells; format: functional, cell-based; details: human, hek293-ebna
T1 sequence (P46720 whole entry): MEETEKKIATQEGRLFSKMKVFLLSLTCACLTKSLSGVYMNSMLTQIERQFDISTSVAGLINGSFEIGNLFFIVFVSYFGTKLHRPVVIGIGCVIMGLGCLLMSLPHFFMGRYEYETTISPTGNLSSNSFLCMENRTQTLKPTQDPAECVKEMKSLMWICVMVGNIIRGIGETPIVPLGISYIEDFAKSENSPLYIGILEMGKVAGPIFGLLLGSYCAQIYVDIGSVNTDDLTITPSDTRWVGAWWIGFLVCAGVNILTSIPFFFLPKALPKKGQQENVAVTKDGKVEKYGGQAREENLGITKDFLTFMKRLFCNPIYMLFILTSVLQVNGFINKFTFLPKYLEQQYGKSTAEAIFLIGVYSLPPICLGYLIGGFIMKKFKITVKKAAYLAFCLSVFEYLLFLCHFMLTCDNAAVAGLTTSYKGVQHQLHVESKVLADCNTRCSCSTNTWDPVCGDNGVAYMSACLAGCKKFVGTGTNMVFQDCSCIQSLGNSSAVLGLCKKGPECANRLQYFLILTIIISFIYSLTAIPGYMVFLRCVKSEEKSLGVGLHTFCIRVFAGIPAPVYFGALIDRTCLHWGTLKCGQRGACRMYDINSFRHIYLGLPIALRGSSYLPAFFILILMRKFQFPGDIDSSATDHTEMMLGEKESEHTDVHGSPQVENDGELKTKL

[2] = target: T2, Solute carrier organic anion transporter family member 1B1 (Homo sapiens, UniProt Q9Y6L6); test: TP_TRANSPORTER: inhibition of Taurocholate uptake (Taurocholate: 0.5 uM, BMS243887: 50 uM) in OATP-C-expressing 293c18 cells; format: functional, cell-based; details: hek293-ebna
T2 sequence (Q9Y6L6 whole entry): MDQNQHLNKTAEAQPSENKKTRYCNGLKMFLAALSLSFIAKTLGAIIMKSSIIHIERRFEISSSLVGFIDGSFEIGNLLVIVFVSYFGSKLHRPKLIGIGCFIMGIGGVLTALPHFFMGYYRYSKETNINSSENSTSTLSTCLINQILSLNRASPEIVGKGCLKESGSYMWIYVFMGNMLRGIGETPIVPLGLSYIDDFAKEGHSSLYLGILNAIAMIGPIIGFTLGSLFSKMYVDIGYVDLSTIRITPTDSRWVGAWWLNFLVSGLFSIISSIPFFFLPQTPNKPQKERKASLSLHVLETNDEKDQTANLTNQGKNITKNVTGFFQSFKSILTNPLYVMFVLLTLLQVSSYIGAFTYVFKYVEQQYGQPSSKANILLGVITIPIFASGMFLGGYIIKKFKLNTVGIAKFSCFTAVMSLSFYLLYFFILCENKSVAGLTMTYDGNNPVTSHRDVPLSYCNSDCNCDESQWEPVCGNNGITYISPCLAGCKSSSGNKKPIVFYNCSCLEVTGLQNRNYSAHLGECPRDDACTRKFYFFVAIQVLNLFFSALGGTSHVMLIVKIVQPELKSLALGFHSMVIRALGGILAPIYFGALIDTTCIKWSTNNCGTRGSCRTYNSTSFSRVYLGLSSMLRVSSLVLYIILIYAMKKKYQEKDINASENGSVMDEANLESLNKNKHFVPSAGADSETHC

[3] = target: T2, Solute carrier organic anion transporter family member 1B1; test: TP_TRANSPORTER: inhibition of Pravastatin uptake (Pravastatin: 0.5 uM, BMS243887: 50 uM) in OATP-C-expressing 293c18 cells; format: functional, cell-based; details: hek293-ebna
[4] = target: T1, Solute carrier organic anion transporter family member 1A1; test: TP_TRANSPORTER: inhibition of Taurocholate uptake (Taurocholate: 0.5 uM, BMS243887: 50 uM) in Oatp1-expressing 293c18 cells; format: functional, cell-based; details: human, hek293-ebna
[5] = target: T1, Solute carrier organic anion transporter family member 1A1; test: TP_TRANSPORTER: inhibition of Taurocholate uptake (Taurocholate: 0.5 uM, Atorvastatin: 50 uM) in Oatp1-expressing 293c18 cells; format: functional, cell-based; details: human, hek293-ebna
[6] = target: T1, Solute carrier organic anion transporter family member 1A1; test: TP_TRANSPORTER: inhibition of Pravastatin uptake (Pravastatin: 0.5 uM, Atorvastatin: 50 uM) in Oatp1-expressing 293c18 cells; format: functional, cell-based; details: human, hek293-ebna
[7] = target: T2, Solute carrier organic anion transporter family member 1B1; test: TP_TRANSPORTER: inhibition of Taurocholate uptake (Taurocholate: 0.5 uM, Atorvastatin: 50 uM) in OATP-C-expressing 293c18 cells; format: functional, cell-based; details: hek293-ebna
[8] = target: T2, Solute carrier organic anion transporter family member 1B1; test: TP_TRANSPORTER: inhibition of Pravastatin uptake (Pravastatin: 0.5 uM, Atorvastatin: 50 uM) in OATP-C-expressing 293c18 cells; format: functional, cell-based; details: hek293-ebna
[9] = target: T1, Solute carrier organic anion transporter family member 1A1; test: TP_TRANSPORTER: inhibition of Taurocholate uptake (Taurocholate: 0.5 uM, BMS241423: 50 uM) in Oatp1-expressing 293c18 cells; format: functional, cell-based; details: human, hek293-ebna
[10] = target: T1, Solute carrier organic anion transporter family member 1A1; test: TP_TRANSPORTER: inhibition of Pravastatin uptake (Pravastatin: 0.5 uM, BMS241423: 50 uM) in Oatp1-expressing 293c18 cells; format: functional, cell-based; details: human, hek293-ebna
[11] = target: T2, Solute carrier organic anion transporter family member 1B1; test: TP_TRANSPORTER: inhibition of Taurocholate uptake (Taurocholate: 0.5 uM, BMS241423: 50 uM) in OATP-C-expressing 293c18 cells; format: functional, cell-based; details: hek293-ebna
[12] = target: T2, Solute carrier organic anion transporter family member 1B1; test: TP_TRANSPORTER: inhibition of Pravastatin uptake (Pravastatin: 0.5 uM, BMS241423: 50 uM) in OATP-C-expressing 293c18 cells; format: functional, cell-based; details: hek293-ebna
[13] = target: T2, Solute carrier organic anion transporter family member 1B1; test: (§1) TP_TRANSPORTER: uptake in OATP-C-expressing 293c18 cells; format: functional, cell-based; details: hek293-ebna
[14] = target: T1, Solute carrier organic anion transporter family member 1A1; test: TP_TRANSPORTER: inhibition of Taurocholate uptake (Taurocholate: 0.5 uM, Lovastatin: 50 uM) in Oatp1-expressing 293c18 cells; format: functional, cell-based; details: human, hek293-ebna
[15] = target: T1, Solute carrier organic anion transporter family member 1A1; test: TP_TRANSPORTER: inhibition of Pravastatin uptake (Pravastatin: 0.5 uM, Lovastatin: 50 uM) in Oatp1-expressing 293c18 cells; format: functional, cell-based; details: human, hek293-ebna
[16] = target: T2, Solute carrier organic anion transporter family member 1B1; test: TP_TRANSPORTER: inhibition of Taurocholate uptake (Taurocholate: 0.5 uM, Lovastatin: 50 uM) in OATP-C-expressing 293c18 cells; format: functional, cell-based; details: hek293-ebna
[17] = target: T2, Solute carrier organic anion transporter family member 1B1; test: TP_TRANSPORTER: inhibition of Pravastatin uptake (Pravastatin: 0.5 uM, Lovastatin: 50 uM) in OATP-C-expressing 293c18 cells; format: functional, cell-based; details: hek293-ebna
[18] = target: T1, Solute carrier organic anion transporter family member 1A1; test: TP_TRANSPORTER: inhibition of Taurocholate uptake (Taurocholate: 0.5 uM, DHEAS: 50 uM) in Oatp1-expressing 293c18 cells; format: functional, cell-based; details: human, hek293-ebna
[19] = target: T1, Solute carrier organic anion transporter family member 1A1; test: TP_TRANSPORTER: inhibition of Pravastatin uptake (Pravastatin: 0.5 uM, DHEAS: 50 uM) in Oatp1-expressing 293c18 cells; format: functional, cell-based; details: human, hek293-ebna
[20] = target: T1, Solute carrier organic anion transporter family member 1A1; test: TP_TRANSPORTER: inhibition of Taurocholate uptake (Taurocholate: 0.5 uM, Simvastatin: 50 uM) in Oatp1-expressing 293c18 cells; format: functional, cell-based; details: human, hek293-ebna
[21] = target: T1, Solute carrier organic anion transporter family member 1A1; test: TP_TRANSPORTER: inhibition of Pravastatin uptake (Pravastatin: 0.5 uM, Simvastatin: 50 uM) in Oatp1-expressing 293c18 cells; format: functional, cell-based; details: human, hek293-ebna
[22] = substrate: CC[C@H](C)C(=O)O[C@H]1C[C@H](O)C=C2C=C[C@H](C)[C@H](CC[C@@H](O)C[C@@H](O)CC(=O)O)[C@H]21; test: TP_TRANSPORTER: uptake in Oatp1-expressing 293c18 cells; format: functional, cell-based, HEK293-EBNA
[23] = substrate: CC[C@H](C)C(=O)O[C@H]1C[C@H](O)C=C2C=C[C@H](C)[C@H](CC[C@@H](O)C[C@@H](O)CC(=O)O)[C@H]21; test: as §1; format: functional, cell-based, HEK293-EBNA

## CC(C)c1c(C(=O)Nc2ccccc2O)c(-c2ccccc2)c(-c2ccc(F)cc2)n1CC[C@@H](O)C[C@@H](O)CC(=O)O
[1]
  Activity: inhibitor [+]
[2]
  Activity: inhibitor [+]
[3]
  Activity: inhibitor [+]
[4]
  Activity: inhibitor [+]

## CC(C)c1c(C(=O)Nc2ccccc2)c(-c2ccccc2)c(-c2ccc(F)cc2)n1CC[C@@H](O)C[C@@H](O)CC(=O)O [ATORVASTATIN]
[5]
  Activity: inhibitor [+]
[6]
  Activity: inhibitor [+]
[7]
  Activity: inhibitor [+]
[8]
  Activity: inhibitor [+]

## CC(C)c1c(C(=O)Nc2ccc(O)cc2)c(-c2ccccc2)c(-c2ccc(F)cc2)n1CC[C@H](O)C[C@H](O)CC(=O)O [BMS241423]
[9]
  Activity: inhibitor [+]
[10]
  Activity: inhibitor [+]
[11]
  Activity: inhibitor [+]
[12]
  Activity: inhibitor [+]

## N[C@@H](Cc1cc(I)c(Oc2cc(I)c(O)c(I)c2)c(I)c1)C(=O)O [LEVOTHYROXINE]
[13]
  Activity: substrate [+]

## CC[C@H](C)C(=O)O[C@H]1C[C@@H](C)C=C2C=C[C@H](C)[C@H](CC[C@@H]3C[C@@H](O)CC(=O)O3)[C@H]21 [LOVASTATIN]
[14]
  Activity: inhibitor [+]
[15]
  Activity: inhibitor [+]
[16]
  Activity: inhibitor [+]
[17]
  Activity: inhibitor [+]

## C[C@]12CC[C@H](OS(=O)(=O)O)CC1=CC[C@@H]1[C@@H]2CC[C@]2(C)C(=O)CC[C@@H]12 [PRASTERONE SULFURIC ACID]
[18]
  Activity: inhibitor [+]
[13]
  Activity: substrate [+]
[19]
  Activity: inhibitor [+]

## CCC(C)(C)C(=O)O[C@H]1C[C@@H](C)C=C2C=C[C@H](C)[C@H](CC[C@@H]3C[C@@H](O)CC(=O)O3)[C@H]21 [SIMVASTATIN]
[20]
  Activity: inhibitor [+]
[21]
  Activity: inhibitor [+]

B1: Solute carrier organic anion transporter family member 1A1 (Rattus norvegicus) (protein)
chain: MEETEKKIATQEGRLFSKMKVFLLSLTCACLTKSLSGVYMNSMLTQIERQFDISTSVAGLINGSFEIGNLFFIVFVSYFGTKLHRPVVIGIGCVIMGLGCLLMSLPHFFMGRYEYETTISPTGNLSSNSFLCMENRTQTLKPTQDPAECVKEMKSLMWICVMVGNIIRGIGETPIVPLGISYIEDFAKSENSPLYIGILEMGKVAGPIFGLLLGSYCAQIYVDIGSVNTDDLTITPSDTRWVGAWWIGFLVCAGVNILTSIPFFFLPKALPKKGQQENVAVTKDGKVEKYGGQAREENLGITKDFLTFMKRLFCNPIYMLFILTSVLQVNGFINKFTFLPKYLEQQYGKSTAEAIFLIGVYSLPPICLGYLIGGFIMKKFKITVKKAAYLAFCLSVFEYLLFLCHFMLTCDNAAVAGLTTSYKGVQHQLHVESKVLADCNTRCSCSTNTWDPVCGDNGVAYMSACLAGCKKFVGTGTNMVFQDCSCIQSLGNSSAVLGLCKKGPECANRLQYFLILTIIISFIYSLTAIPGYMVFLRCVKSEEKSLGVGLHTFCIRVFAGIPAPVYFGALIDRTCLHWGTLKCGQRGACRMYDINSFRHIYLGLPIALRGSSYLPAFFILILMRKFQFPGDIDSSATDHTEMMLGEKESEHTDVHGSPQVENDGELKTKL
[22]
  Km: 30 µM

B2: Solute carrier organic anion transporter family member 1B1 (Homo sapiens) (protein)
chain: MDQNQHLNKTAEAQPSENKKTRYCNGLKMFLAALSLSFIAKTLGAIIMKSSIIHIERRFEISSSLVGFIDGSFEIGNLLVIVFVSYFGSKLHRPKLIGIGCFIMGIGGVLTALPHFFMGYYRYSKETNINSSENSTSTLSTCLINQILSLNRASPEIVGKGCLKESGSYMWIYVFMGNMLRGIGETPIVPLGLSYIDDFAKEGHSSLYLGILNAIAMIGPIIGFTLGSLFSKMYVDIGYVDLSTIRITPTDSRWVGAWWLNFLVSGLFSIISSIPFFFLPQTPNKPQKERKASLSLHVLETNDEKDQTANLTNQGKNITKNVTGFFQSFKSILTNPLYVMFVLLTLLQVSSYIGAFTYVFKYVEQQYGQPSSKANILLGVITIPIFASGMFLGGYIIKKFKLNTVGIAKFSCFTAVMSLSFYLLYFFILCENKSVAGLTMTYDGNNPVTSHRDVPLSYCNSDCNCDESQWEPVCGNNGITYISPCLAGCKSSSGNKKPIVFYNCSCLEVTGLQNRNYSAHLGECPRDDACTRKFYFFVAIQVLNLFFSALGGTSHVMLIVKIVQPELKSLALGFHSMVIRALGGILAPIYFGALIDTTCIKWSTNNCGTRGSCRTYNSTSFSRVYLGLSSMLRVSSLVLYIILIYAMKKKYQEKDINASENGSVMDEANLESLNKNKHFVPSAGADSETHC
[23]
  Km: 33.7 µM
